Measurements taken from ChEMBL document CHEMBL1201862, “PubChem BioAssay data set” (2004).
The source made the active and inactive calls. Cut-off read from the data, not from the text of the source, for most assays here: actives have a measured EC50 and inactives only a lower limit.

Experiments:
[1] = Luminescence Cell-Based Dose Response to Identify Activators of 5'UTR Stem-Loop Driven Prion Protein mRNA Translation in H4-C Neuroglioblastoma Cells. [Related pubchem assays: 1829 (Project Summary), 1814 (Primary HTS)]; type: functional
[2] = Luminescence Cell-Based Dose Confirmation HTS to Identify Activators of 5'UTR Stem-Loop Driven Alpha-Synuclein mRNA Translation in H4 Neuroglioblastoma Cells. [Related pubchem assays: 1829 (Project Summary), 1814 (Primary HTS)]; type: functional
[3] = Luminescence Cell-Based Dose Response HTS to Identify Activators of Luciferase Translation or Activity in H4 […] Cells. [Related pubchem assays: 1829 (Project Summary), 1814 (Primary HTS)]; type: functional
H4 = assay: Luminescence Cell-Based Dose Response HTS to Identify Activators of 5'UTR Stem-Loop Driven Prion Protein mRNA Translation in H4 Neuroglioblastoma Cells. [Related pubchem assays: 1829 (Project Summary), 1814 (Primary HTS)]; type: functional; conditions: Homo sapiens
[4] = Luminescence Cell-Based Dose Response to Identify Activators of Luciferase Translation or Activity in H4-C Neuroglioblastoma Cells. [Related pubchem assays: 1829 (Project Summary), 1814 (Primary HTS)]; type: functional
[5] = Luminescence Cell-Based Dose Confirmation to Identify Activators of 5'UTR Stem-Loop Driven Alpha-Synuclein mRNA Translation in H4 Neuroglioblastoma Cells. [Related pubchem assays: 1829 (Project Summary), 1814 (Primary HTS)]; type: functional
[6] = Trypanosoma cruzi growth suppression in host cells – NIH3T3 host cells, beta-gal luminescence, confirmation (AID 2044); type: functional, cell-based;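 note: intracellular parasites grown in NIH/3T3 mouse fibroblasts as host cells; luminescent beta-galactosidase reporter signal from transgenic T. cruzi replicating inside host cells; inhibitors lower the luminescence signal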
[7] = NIH3T3 cell viability loss – ATP luminescence, mouse fibroblasts, counter-screen, dose response (AID 2010); type: functional, cell-based;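 note: cells exposed to compound for about 90 hours before reading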
[8] = biological target: T1, RNA-binding protein pos-1 (Caenorhabditis elegans, UniProt G5EF15); assay: disruptors of C. elegans POS-1 RNA interaction – biochemical, fluorescence polarization, dose response (AID 1964);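 note: purified POS-1 fused to maltose binding protein made in E. coli; potency of compounds blocking POS-1 binding to fluorescent RNA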
T1 sequence (G5EF15 whole entry): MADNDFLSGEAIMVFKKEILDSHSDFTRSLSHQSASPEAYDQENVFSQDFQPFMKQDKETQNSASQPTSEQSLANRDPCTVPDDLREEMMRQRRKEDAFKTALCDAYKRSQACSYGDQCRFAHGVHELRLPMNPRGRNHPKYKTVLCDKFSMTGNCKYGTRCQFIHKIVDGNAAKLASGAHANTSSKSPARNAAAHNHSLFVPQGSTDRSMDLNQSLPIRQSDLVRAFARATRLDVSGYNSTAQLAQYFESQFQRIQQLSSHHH

[9] = biological target: T2, Zinc finger protein mex-5 (Caenorhabditis elegans, UniProt Q9XUB2); assay: potency of MEX-5 RNA-binding blockers – biochemical, C. elegans, fluorescence polarization, dose response (AID 1960)
T2 sequence (Q9XUB2 whole entry): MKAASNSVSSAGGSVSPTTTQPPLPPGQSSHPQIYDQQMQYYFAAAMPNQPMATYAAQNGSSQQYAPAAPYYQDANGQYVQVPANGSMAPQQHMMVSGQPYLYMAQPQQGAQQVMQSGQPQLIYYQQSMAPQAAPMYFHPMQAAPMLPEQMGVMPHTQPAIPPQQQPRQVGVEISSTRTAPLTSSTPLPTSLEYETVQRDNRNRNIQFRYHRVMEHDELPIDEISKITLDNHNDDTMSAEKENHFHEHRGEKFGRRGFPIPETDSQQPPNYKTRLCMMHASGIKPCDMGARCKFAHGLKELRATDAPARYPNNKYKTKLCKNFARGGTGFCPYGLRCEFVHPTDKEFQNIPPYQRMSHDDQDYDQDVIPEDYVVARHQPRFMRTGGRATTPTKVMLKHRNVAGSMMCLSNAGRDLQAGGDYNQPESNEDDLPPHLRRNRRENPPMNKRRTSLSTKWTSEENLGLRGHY

[10] = biological target: T3, Corticotropin-releasing factor receptor 2/Corticotropin-releasing factor-binding protein (Homo sapiens, UniProt P24387+Q13324); assay: Dose Response confirmation of uHTS hits for small molecule antagonists of the CRF-binding protein and CRF-R2 receptor complex.; type: functional; conditions: read-out: IC50_Mean
T3 sequence (Q13324 whole entry): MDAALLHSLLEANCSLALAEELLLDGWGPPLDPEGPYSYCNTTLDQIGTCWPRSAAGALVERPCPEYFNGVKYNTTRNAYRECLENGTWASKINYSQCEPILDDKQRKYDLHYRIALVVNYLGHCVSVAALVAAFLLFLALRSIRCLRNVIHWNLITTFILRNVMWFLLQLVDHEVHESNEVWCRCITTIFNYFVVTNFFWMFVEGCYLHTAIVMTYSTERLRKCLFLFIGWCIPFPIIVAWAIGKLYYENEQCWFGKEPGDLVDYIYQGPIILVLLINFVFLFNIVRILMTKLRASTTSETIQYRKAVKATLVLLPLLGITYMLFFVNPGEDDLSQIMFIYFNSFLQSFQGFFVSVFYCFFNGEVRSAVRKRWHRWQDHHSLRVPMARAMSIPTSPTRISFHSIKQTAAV
T3 sequence (P24387 whole entry): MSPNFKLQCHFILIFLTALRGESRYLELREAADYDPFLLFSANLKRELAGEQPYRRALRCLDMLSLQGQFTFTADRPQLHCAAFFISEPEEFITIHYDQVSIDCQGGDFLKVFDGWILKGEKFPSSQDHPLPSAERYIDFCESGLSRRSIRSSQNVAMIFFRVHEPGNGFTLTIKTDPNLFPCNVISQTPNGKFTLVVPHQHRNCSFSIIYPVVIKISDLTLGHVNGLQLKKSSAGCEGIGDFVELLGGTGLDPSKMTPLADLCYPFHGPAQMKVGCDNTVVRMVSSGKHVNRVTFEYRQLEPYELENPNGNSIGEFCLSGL

[11] = biological target: T3, Corticotropin-releasing factor receptor 2/Corticotropin-releasing factor-binding protein; assay: activators of CRF receptor 2 with binding protein – uHTS hits, confirmation (AID 602473); type: functional; conditions: read-out: EC50_Mean
[12] = Luminescence-based cell-based high throughput dose response assay to identify activators of the DAF-12 from the parasite S. stercoralis (ssDAF-12).; type: functional
[13] = biological target: T4, Oxysterols receptor LXR-beta (Homo sapiens, UniProt P55055); assay: LXR agonists, Gal4 luciferase reporter, dose response, counter-screen for ssDAF-12 agonist project, cell-based, luminescence, HEK293, S. stercoralis campaign (AID 720737); type: functional; conditions: read-out: IC50 (the source's name)
T4 sequence (P55055 whole entry): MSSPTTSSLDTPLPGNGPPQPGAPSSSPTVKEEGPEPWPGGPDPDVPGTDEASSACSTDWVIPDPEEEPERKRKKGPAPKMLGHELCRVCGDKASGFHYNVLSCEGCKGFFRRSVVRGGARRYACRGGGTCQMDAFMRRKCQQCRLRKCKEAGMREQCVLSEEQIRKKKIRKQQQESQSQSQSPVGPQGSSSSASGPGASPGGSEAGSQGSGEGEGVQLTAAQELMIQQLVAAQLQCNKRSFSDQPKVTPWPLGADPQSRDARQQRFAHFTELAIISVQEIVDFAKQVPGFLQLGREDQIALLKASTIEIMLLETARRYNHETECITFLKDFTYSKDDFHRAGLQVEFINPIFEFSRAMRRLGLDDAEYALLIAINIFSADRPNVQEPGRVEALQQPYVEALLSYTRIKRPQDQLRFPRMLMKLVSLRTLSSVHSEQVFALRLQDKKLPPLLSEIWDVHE

Row | Compound | EC50 [1] | EC50 [2] | EC50 [3] | EC50 (H4) | EC50 [4] | EC50 [5] | EC50 [6] | EC50 [7] | EC50 [8] | EC50 [9] | IC50 [10] | EC50 [11] | IC50 [12] | EC50 [13]
1 | O=C(/C=C/c1ccco1)NC1=NCCS1 | 0.519 µM (active) | < 0.1 µM (active) | 0.484 µM (active) | < 0.1 µM (active) | 0.323 µM (active) | 0.428 µM (active) | – | – | – | – | – | – | – | –
2 | CCC(=O)Nc1ccc(C(=O)OCc2ccccc2Cl)cc1 | 8.13 µM (active) | < 0.1 µM (active) | 37.7 µM (active) | 11.7 µM (active) | 0.614 µM (active) | 0.976 µM (active) | 0.815 µM (active) | > 60 µM (not active) | – | – | – | – | – | –
3 | CCCn1nc(C(=O)Nc2ccc3nc(C)sc3c2)c2ccccc2c1=O | – | – | – | – | – | – | – | – | > 300 µM (not active) | > 300 µM (not active) | > 47.1 µM (inactive) | > 53 µM (inactive) | > 67.5 µM (inactive) | > 67.5 µM (inactive)
